This passage reports potency estimated from few doses results from US9820487B2, “Abscinazole” (NATIONAL UNIVERSITY CORPORATION SHIZUOKA UNIVERSITY, priority 2014, dated 2017).

In this test the target is T1, ent-kaurene oxidase CYP701A6 (Oryza sativa subsp. japonica, UniProt Q5Z5R4).
T1 sequence (Q5Z5R4 1-505): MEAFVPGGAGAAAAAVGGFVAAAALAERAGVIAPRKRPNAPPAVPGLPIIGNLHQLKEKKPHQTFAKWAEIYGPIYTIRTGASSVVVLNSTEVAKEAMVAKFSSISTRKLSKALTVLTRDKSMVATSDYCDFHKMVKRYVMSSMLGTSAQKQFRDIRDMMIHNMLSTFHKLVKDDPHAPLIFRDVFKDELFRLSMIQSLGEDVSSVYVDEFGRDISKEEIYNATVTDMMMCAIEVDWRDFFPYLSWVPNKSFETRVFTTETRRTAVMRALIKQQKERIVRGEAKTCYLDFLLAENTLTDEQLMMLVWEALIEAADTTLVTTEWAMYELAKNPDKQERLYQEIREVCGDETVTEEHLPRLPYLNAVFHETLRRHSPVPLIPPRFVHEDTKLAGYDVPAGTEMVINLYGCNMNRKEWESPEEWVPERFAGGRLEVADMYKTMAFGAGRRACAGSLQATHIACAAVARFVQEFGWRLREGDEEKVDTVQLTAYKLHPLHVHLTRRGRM
The experiment in a line: Ent-kaurene oxidase CYP701A6 inhibition test. The conditions noted are these: CYP701A6 + NADPH-P450 reductase ATR2, substrate ent-kaurene, 30° C. 30 minutes; IC50 calculated from two concentrations. The test is classed as biochemical. The protocol:
To a 1.5 mL microtube, 8 μL of an aqueous solution of 500 μM ent-kaurene as a substrate in 45% cyclodextrin and 8μL of a solution of the sample in dimethylformamide were put. 10 μL of 2.32 μM ent-kaurene oxidase CYP701A6 and 10 μL of 4.6 unit/mL NADPH-P450 reductase ATR2, heated at 30° C. for 5 minutes in advance, were added thereto. 304 μL of ultra-pure water, 40 μL of 500 mM KPB and 20 μL of an aqueous solution of 20 mM NADPH, heated at 30° C. for 10 minutes in advance, were added thereto thereby starting the enzyme reaction. The reaction was carried out at 30° C. for 30 minutes at a rotation speed of 1000 rpm and 100 μL of 1 M hydrochloric acid was added thereto thereby terminating the reaction. 5 μL of 10 μM abietic acid as the internal standard was added thereto, and the solution was extracted with 400 μL of ethyl acetate. The resultant was dried over sodium sulfate and subsequently concentrated under reduced pressure. 50 μL of methanol and 5 μL of 2 M trimethyl silyldiazomethane were added thereto to methylate carboxylic acid and the resultant was thy-solidified using nitrogen. The solidified product was dissolved in 150 μL of hexane and 1 μL of the resultant solution was subjected to a GC-MS analysis to detect the enzyme metabolite ent-kaurene acid. The CYP701A6 inhibition rate of the samples was calculated in accordance with the following formula (4). Note that the peak area of ent-kaurene acid was calculated from the peak area of m/z 273 and that ent-kaurene acid was identified from the area ratio of m/z 257, 213. The peak area of abietic acid was calculated from the area of m/z 256, and abietic acid was identified from the area ratio of m/z 316. Note that dimethylformamide was used for the control in place of the sample solution. Each sample was tested with two different concentrations to act late the 50% inhibition concentration (IC50) based on the enzyme inhibition rates thereof.
Enzyme inhibition rate (%)={1-(Ent-kaurene acid peak area of each sample/Abietic acid peak area of each sample/(Ent-kaurene acid peak area of control/Abietic acid peak area of control }×100 . . . (4)

Take `COCCOCCOCCOCC#Cc1cccc(/C=C(\[C@@H](O)C(C)(C)C)n2cncn2)c1` [Example 1 (−) Form, (−)-(S)-(E)-1-(3-(2,5,8,11-tetraoxatetradec-13-yn-14-yl)phenyl)-4,4-dimethyl-2-(1H-1,2,4-triazol-1-yl)pent-1-en-3-ol]: the potency estimated from few doses was 780 nM.
